Assay results taken from BigSolDB 2.1.

Cc1cccc([N+](=O)[O-])c1N
solubility (mole fraction)
Conditions | in 1,4-dioxane | in acetone | in acetonitrile | in cyclohexane | in ethanol | in ethyl acetate | in isopropanol | in methanol | in n-propanol | in toluene
278.15 K | – | 0.113 | 0.0418 | – | 0.0102 | 0.0841 | 0.0086 | 0.00739 | 0.0108 | 0.0237
280.65 K | – | 0.122 | 0.0466 | – | 0.0112 | 0.0924 | 0.00945 | 0.00829 | 0.012 | 0.0267
283.15 K | 0.18 | 0.132 | 0.0529 | 0.00103 | 0.0125 | 0.101 | 0.0105 | 0.00916 | 0.0133 | 0.0301
285.65 K | 0.19 | 0.142 | 0.0589 | 0.00118 | 0.0139 | 0.11 | 0.0119 | 0.0102 | 0.0149 | 0.0336
288.15 K | 0.201 | 0.153 | 0.067 | 0.00136 | 0.0154 | 0.121 | 0.0133 | 0.0113 | 0.0165 | 0.0375
290.65 K | 0.211 | 0.165 | 0.0753 | 0.00158 | 0.017 | 0.131 | 0.0147 | 0.0124 | 0.0183 | 0.0417
293.15 K | 0.223 | 0.177 | 0.0844 | 0.00181 | 0.019 | 0.142 | 0.0163 | 0.014 | 0.0203 | 0.0469
295.65 K | 0.236 | 0.19 | 0.0954 | 0.00211 | 0.021 | 0.155 | 0.0183 | 0.0155 | 0.0225 | 0.0521
298.15 K | 0.249 | 0.203 | 0.106 | 0.00242 | 0.0233 | 0.168 | 0.0202 | 0.0172 | 0.0248 | 0.0581
300.65 K | 0.262 | 0.217 | 0.119 | 0.00279 | 0.0256 | 0.182 | 0.0225 | 0.0192 | 0.0275 | 0.0647
303.15 K | 0.277 | 0.233 | 0.133 | 0.00318 | 0.0284 | 0.196 | 0.0249 | 0.0212 | 0.0305 | 0.0719
305.65 K | 0.291 | 0.249 | 0.148 | 0.00369 | 0.0314 | 0.212 | 0.0277 | 0.0234 | 0.0336 | 0.0804
308.15 K | 0.306 | 0.265 | 0.165 | 0.00424 | 0.0346 | 0.228 | 0.0306 | 0.0261 | 0.0371 | 0.0893
310.65 K | 0.323 | 0.283 | 0.183 | 0.00489 | 0.0381 | 0.246 | 0.0339 | 0.0288 | 0.041 | 0.0993
313.15 K | 0.339 | 0.301 | 0.203 | 0.00562 | 0.042 | 0.265 | 0.0376 | 0.032 | 0.0451 | 0.11
